Experimental data from the supplement of paper PMC10307832.

Assays:
Experiment in all cases: relative viability (nuclei count vs DMSO), 5 days (fraction); higher = more cells survive
HARA = tested on: HARA
Procedure, shortened: (§1)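 Lung cancer cell lines in 1536-well plates got either a single drug or a fixed anchor-drug dose together with five library-drug doses (not always all listed) in √10 steps, by pin tool, on the day after seeding. Nuclei were counted after 5 days, and relative viability is the treated-to-vehicle ratio of nuclei counts. Values are medians of duplicate plates.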

NCI-H2170 = tested on: NCI-H2170
Procedure, shortened: as §1

LXF-289 = tested on: LXF-289
Procedure, shortened: as §1

HOP-62 = tested on: HOP-62
Procedure, shortened: as §1

NCI-H1993 = tested on: NCI-H1993
Procedure, shortened: as §1

SK-LU-1 = tested on: SK-LU-1
Procedure, shortened: as §1

NCI-H2009 = tested on: NCI-H2009
Procedure, shortened: as §1

NCI-H3122 = tested on: NCI-H3122
Procedure, shortened: as §1

SK-MES-1 = tested on: SK-MES-1
Procedure, shortened: as §1

A-427 = tested on: A-427
Procedure, shortened: as §1

COR-L23 = tested on: COR-L23
Procedure, shortened: as §1

NCI-H2228 = tested on: NCI-H2228
Procedure, shortened: as §1

NCI-H1793 = tested on: NCI-H1793
Procedure, shortened: as §1

ABC-1 = tested on: ABC-1
Procedure, shortened: as §1

NCI-H727 = tested on: NCI-H727
Procedure, shortened: as §1

SW 1573 = tested on: SW 1573
Procedure, shortened: as §1

NCI-H1792 = tested on: NCI-H1792
Procedure, shortened: as §1

NCI-H596 = tested on: NCI-H596
Procedure, shortened: as §1

PC-3 [JPC-3] = tested on: PC-3 [JPC-3]
Procedure, shortened: as §1

LK-2 = tested on: LK-2
Procedure, shortened: as §1

NCI-H1944 = tested on: NCI-H1944
Procedure, shortened: as §1

EMC-BAC-2 = tested on: EMC-BAC-2
Procedure, shortened: as §1

C=C1C(=O)O[C@@H](CCCCCCCC)[C@@H]1C(=O)O [C-75] + CS(=O)(=O)CCNCc1ccc(-c2ccc3ncnc(Nc4ccc(OCc5cccc(F)c5)c(Cl)c4)c3c2)o1 [Lapatinib] (partner 2 µM)
relative viability (HARA; first compound 0.08 µM): 0.619
relative viability (HARA; first compound 0.253 µM): 0.511
relative viability (HARA; first compound 0.8 µM): 0.646
relative viability (HARA; first compound 8 µM): 0.825
relative viability (NCI-H2170; first compound 0.08 µM): 0.269
relative viability (NCI-H2170; first compound 0.253 µM): 0.276
relative viability (NCI-H2170; first compound 0.8 µM): 0.255
relative viability (NCI-H2170; first compound 2.53 µM): 0.216
relative viability (NCI-H2170; first compound 8 µM): 0.276
relative viability (LXF-289; first compound 0.08 µM): 0.842
relative viability (LXF-289; first compound 0.253 µM): 0.872
relative viability (LXF-289; first compound 0.8 µM): 0.895
relative viability (LXF-289; first compound 2.53 µM): 0.925
relative viability (LXF-289; first compound 8 µM): 0.908
relative viability (HOP-62; first compound 0.08 µM): 1.07
relative viability (HOP-62; first compound 0.253 µM): 1.09
relative viability (HOP-62; first compound 0.8 µM): 0.955
relative viability (HOP-62; first compound 2.53 µM): 0.713
relative viability (HOP-62; first compound 8 µM): 0.817
relative viability (NCI-H1993; first compound 0.08 µM): 0.796
relative viability (NCI-H1993; first compound 0.253 µM): 0.825
relative viability (NCI-H1993; first compound 0.8 µM): 0.807
relative viability (NCI-H1993; first compound 2.53 µM): 0.763
relative viability (NCI-H1993; first compound 8 µM): 0.667
relative viability (SK-LU-1; first compound 0.08 µM): 0.795
relative viability (SK-LU-1; first compound 0.253 µM): 0.91
relative viability (SK-LU-1; first compound 0.8 µM): 0.843
relative viability (SK-LU-1; first compound 2.53 µM): 0.795
relative viability (SK-LU-1; first compound 8 µM): 0.577
relative viability (NCI-H2009; first compound 0.08 µM): 0.984
relative viability (NCI-H2009; first compound 0.253 µM): 0.88
relative viability (NCI-H2009; first compound 0.8 µM): 0.901
relative viability (NCI-H2009; first compound 2.53 µM): 0.939
relative viability (NCI-H2009; first compound 8 µM): 0.762
relative viability (NCI-H3122; first compound 0.08 µM): 1.03
relative viability (NCI-H3122; first compound 0.253 µM): 1.02
relative viability (NCI-H3122; first compound 0.8 µM): 0.997
relative viability (NCI-H3122; first compound 8 µM): 1.02
relative viability (SK-MES-1; first compound 0.08 µM): 0.442
relative viability (SK-MES-1; first compound 0.253 µM): 0.441
relative viability (SK-MES-1; first compound 0.8 µM): 0.397
relative viability (SK-MES-1; first compound 8 µM): 0.429
relative viability (A-427; first compound 0.08 µM): 1.01
relative viability (A-427; first compound 0.253 µM): 1.07
relative viability (A-427; first compound 0.8 µM): 1.02
relative viability (A-427; first compound 2.53 µM): 0.997
relative viability (A-427; first compound 8 µM): 1.01
relative viability (COR-L23; first compound 0.08 µM): 0.868
relative viability (COR-L23; first compound 0.253 µM): 0.94
relative viability (COR-L23; first compound 0.8 µM): 0.919
relative viability (COR-L23; first compound 2.53 µM): 0.469
relative viability (COR-L23; first compound 8 µM): 1.01
relative viability (NCI-H2228; first compound 0.08 µM): 1.11
relative viability (NCI-H2228; first compound 0.253 µM): 1.19
relative viability (NCI-H2228; first compound 0.8 µM): 1.1
relative viability (NCI-H2228; first compound 2.53 µM): 0.903
relative viability (NCI-H2228; first compound 8 µM): 1.03
relative viability (NCI-H1793; first compound 0.08 µM): 0.635
relative viability (NCI-H1793; first compound 0.253 µM): 0.785
relative viability (NCI-H1793; first compound 0.8 µM): 0.493
relative viability (NCI-H1793; first compound 2.53 µM): 0.483
relative viability (NCI-H1793; first compound 8 µM): 0.713
relative viability (ABC-1; first compound 0.08 µM): 1.1
relative viability (ABC-1; first compound 0.253 µM): 1.33
relative viability (ABC-1; first compound 0.8 µM): 1.17
relative viability (ABC-1; first compound 2.53 µM): 0.981
relative viability (ABC-1; first compound 8 µM): 0.929
relative viability (NCI-H727; first compound 0.08 µM): 0.881
relative viability (NCI-H727; first compound 0.253 µM): 1.54
relative viability (NCI-H727; first compound 0.8 µM): 0.711
relative viability (NCI-H727; first compound 2.53 µM): 0.841
relative viability (NCI-H727; first compound 8 µM): 1.22
relative viability (SW 1573; first compound 0.08 µM): 1.14
relative viability (SW 1573; first compound 0.253 µM): 1.14
relative viability (SW 1573; first compound 0.8 µM): 1.15
relative viability (SW 1573; first compound 2.53 µM): 1.04
relative viability (SW 1573; first compound 8 µM): 0.792
relative viability (NCI-H1792; first compound 0.08 µM): 0.865
relative viability (NCI-H1792; first compound 0.253 µM): 0.835
relative viability (NCI-H1792; first compound 0.8 µM): 0.675
relative viability (NCI-H1792; first compound 2.53 µM): 0.68
relative viability (NCI-H1792; first compound 8 µM): 0.798
relative viability (NCI-H596; first compound 0.08 µM): 1.08
relative viability (NCI-H596; first compound 0.253 µM): 1.13
relative viability (NCI-H596; first compound 0.8 µM): 1.07
relative viability (NCI-H596; first compound 2.53 µM): 0.87
relative viability (NCI-H596; first compound 8 µM): 1.14
relative viability (PC-3 [JPC-3]; first compound 0.08 µM): 0.449
relative viability (PC-3 [JPC-3]; first compound 0.253 µM): 0.528
relative viability (PC-3 [JPC-3]; first compound 0.8 µM): 0.405
relative viability (PC-3 [JPC-3]; first compound 2.53 µM): 0.485
relative viability (PC-3 [JPC-3]; first compound 8 µM): 0.478
relative viability (LK-2; first compound 0.08 µM): 1.03
relative viability (LK-2; first compound 0.253 µM): 1.15
relative viability (LK-2; first compound 0.8 µM): 1.08
relative viability (LK-2; first compound 2.53 µM): 0.744
relative viability (LK-2; first compound 8 µM): 0.622
relative viability (NCI-H1944; first compound 0.08 µM): 0.792
relative viability (NCI-H1944; first compound 0.253 µM): 0.755
relative viability (NCI-H1944; first compound 0.8 µM): 0.685
relative viability (NCI-H1944; first compound 8 µM): 0.682
relative viability (EMC-BAC-2; first compound 0.08 µM): 0.897
relative viability (EMC-BAC-2; first compound 0.253 µM): 0.85
relative viability (EMC-BAC-2; first compound 0.8 µM): 0.882
relative viability (EMC-BAC-2; first compound 2.53 µM): 0.721
relative viability (EMC-BAC-2; first compound 8 µM): 0.998
